Measured values: patent US20250163074A1, “CDK Inhibitors And Their Use As Pharmaceuticals” (Prelude Therapeutics Incorporated, priority 2020, published 2025)
Like-named read-outs stand apart in the source and are kept apart here.

Tests used:
[1] = system: MCF7 adenocarcinoma cell line; experiment: Cell proliferation studies in MCF7 cells (ATP-Lite); format: cell-based; conditions: 10 days incubation, cell viability by ATP-Lite luminescence, read-out: PROLIFERATION_CTG_MCF7 IC50
Experimental: Cell Proliferation Studies in MCF7 Cells
Cell proliferation studies were conducted in MCF7 adenocarcinoma cell line. Cells were maintained in DMEM (Corning, Catalog #: 10-013-CV) supplemented with 10% v/v FBS (Gibco, Catalog #: 26140-079), 1% v/v Penicillin Streptomycin (Gibco, Catalog #15140-122) Cells were seeded in 384-well plates at a density of 100 or 200 cells/well. Compounds dissolved in DMSO were plated in quadruplicate using a digital dispenser (D300E, Tecan) and tested on a 9-point 3-fold serial dilution. Cells were incubated for 10 days in a 37° C. active humidified incubator at 5% CO2. A media exchange and second compound addition were performed on day 5. Cell viability was measured using the ATP-Lite 1-Step Luminescence reagent (Perkin Elmer, Catalog #: 6016731) as per manufacturer's instructions. Luminescence signal was measured with a multimode plate reader (Envision 2105, Perkin Elmer). Raw data files were imported to Dotmatics Screening Ultra for IC50 analysis. Luminescence values were normalized to both background and DMSO controls to obtain a percentage of viable cells relative to DMSO vehicle control.

[2] = molecular target: CDK4/Cyclin D1 (Homo sapiens (Human), UniProt P11802); experiment: CDK4/CyclinD1 enzymatic activity assay (TR-FRET); format: biochemical; conditions: CDK4/CyclinD1 1 nM, ATP 2 mM, read-out: CDK4_D1 IC50
Experimental: CDK4/CyclinD1 Enzymatic Activity Assay
The inhibitory activity of compounds was evaluated in vitro using TR-FRET assay with white 384-well low volume microplate (Greiner Bio-One). CDK4/Cyclin D1 catalyzed phosphorylation of peptide in the presence and absence of compounds was measured. IC50 determination. Recombinant protein complex CDK4/Cyclin D1, expressed from insect cell, was purchased from ProQinase. Testing compounds were dissolved in DMSO at 0.1 mM and tested in 9-dose IC50 mode. The reaction mixture was prepared by mixing CDK4/CyclinD1 (1 nM final), ULight-4E-BP1 (100 nM final, Perkinelmer, TRF0128-D), and ATP (2 mM final) in assay buffer (20 mM of HEPES pH 7.4, 1 mM of EGTA, 0.05% BSA, 0.005% Tween 20, and 1 mM TCEP). The compound of interest in DMSO was added to each well in 3-fold serial dilution by dispenser (TECAN D300E). After 20 minutes preincubation at room temperature, MgCl2 (10 mM final) was added to initiate the reaction. Following a 60 minutes incubation at 37° C., the reaction was stopped by addition of 2 μL of quenching buffer consisting of Lance detection buffer (Perkinelmer CR97-100C), 2 nM LANCE Ultra Europium-anti-P-4E-BP1 (Perkinelmer, TRF0216-D), 10 mM EDTA, and incubate at room temperature for additional 60 minutes in dark. The reaction signal was measured by Envision multimode plate reader (PerkinElmer, 2102-0010). IC50 values were determined by fitting the data to the standard 4 parameters with Hill Slope using GraphPad Prism software.

Chain of CDK4/Cyclin D1 (P11802 whole entry): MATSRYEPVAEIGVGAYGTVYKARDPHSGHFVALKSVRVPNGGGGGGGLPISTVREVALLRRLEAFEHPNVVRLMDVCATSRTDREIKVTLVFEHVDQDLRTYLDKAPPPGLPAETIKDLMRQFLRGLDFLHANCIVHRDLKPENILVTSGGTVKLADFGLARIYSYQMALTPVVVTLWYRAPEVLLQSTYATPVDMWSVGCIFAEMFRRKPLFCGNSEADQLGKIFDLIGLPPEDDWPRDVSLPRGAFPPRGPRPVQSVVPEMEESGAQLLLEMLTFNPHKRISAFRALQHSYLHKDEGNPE
Chain of CDK4/Cyclin D1 (P24385 whole entry partner): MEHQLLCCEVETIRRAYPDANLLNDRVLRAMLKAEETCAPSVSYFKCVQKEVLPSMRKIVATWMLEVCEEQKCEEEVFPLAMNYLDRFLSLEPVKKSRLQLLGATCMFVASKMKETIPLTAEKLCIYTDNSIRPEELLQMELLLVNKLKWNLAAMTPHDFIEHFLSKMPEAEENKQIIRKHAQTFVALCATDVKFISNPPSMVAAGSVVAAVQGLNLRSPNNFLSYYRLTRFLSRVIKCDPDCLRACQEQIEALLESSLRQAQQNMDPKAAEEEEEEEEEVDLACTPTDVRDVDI

| IC50 ([1]; Homo sapiens, 240 h) [nM] | IC50 [2] [nM] | IC50 [1] [nM] | SMILES |
| --- | --- | --- | --- |
| 200 to 2000 | ≤ 20 | – | CCN1CCC(c2ccc(Nc3ncc(F)c(-c4cc5c(s4)C4(CC4)CN(C)C5=O)n3)nc2)C1 (stereo not drawn) [Example 31, 2′-(2-((5-(1-Ethylpyrrolidin-3-yl)pyridin-2-yl)amino)-5-fluoropyrimidin-4-yl)-5′-methyl-5′,6′-dihydro-4′H-spiro[cyclo-propane-1,7′-thieno[3,2-c]pyridin]-4′-one] |
| 200 to 2000 | ≤ 20 | – | CCN1CCN(Cc2ccc(Nc3ncc(F)c(-c4sc5c(c4C)C(=O)N(C)CC54CC4)n3)nc2)CC1 [Example 38, 2′-(2-((5-((4-Ethylpiperazin-1-yl)methyl)pyridin-2-yl)amino)-5-fluoropyrimidin-4-yl)-3′,5′-dimethyl-5′,6′-dihydro-4′H-spiro[cyclopropane-1,7′-thieno[3,2-c]pyridin]-4′-one] |
| 20 to 200 | ≤ 20 | – | CCN1CCC12CN(c1ccc(Nc3ncc(F)c(-c4cc5c(s4)C4(CCC4)CN(C)C5=O)n3)nc1)C2 [Example 51, 2′-(2-((5-(1-Ethyl-1,6-diazaspiro[3.3]heptan-6-yl)pyridin-2-yl)amino)-5-fluoropyrimidin-4-yl)-5′-methyl-5′,6′-dihydro-4′H-spiro[cyclobutane-1,7′-thieno[3,2-c]pyridin]-4′-one] |
| – | ≤ 20 | – | CCN1CCN(Cc2ccc(Nc3ncc(F)c(-c4sc5c(c4C)C(=O)N(C)CC54CCC4)n3)nc2)CC1 [Example 56, 2′-(2-((5-((4-Ethylpiperazin-1-yl)methyl)pyridin-2-yl)amino)-5-fluoropyrimidin-4-yl)-3′,5′-dimethyl-5′,6′-dihydro-4′H-spiro[cyclobutane-1,7′-thieno[3,2-c]pyridin]-4′-one] |
| – | ≤ 20 | – | CCN1CCN(Cc2ccc(Nc3ncc(F)c(-c4ccc5c(c4)C4(CCCC4)CN(C)C5=O)n3)nc2)CC1 [Example 68, 6′-(2-((5-((4-Ethylpiperazin-1-yl)methyl)pyridin-2-yl)amino)-5-fluoropyrimidin-4-yl)-2′-methyl-2′,3′-dihydro-1′H-spiro [cyclo-pentane-1,4′-isoquinolin]-1′-one] |
| – | 20 to 200 | – | CCN1CC2(C1)CN(c1ccc(Nc3ncc(F)c(-c4ccc5c(c4)C4(CCC4)CN(C)C5=O)n3)nc1)C2 [Example 69, 6′-(2-((5-(6-Ethyl-2,6-diazaspiro[3.3]heptan-2-yl)pyridin-2-yl)amino)-5-fluoropyrimidin-4-yl)-2′-methyl-2′,3′-dihydro-1′H-spiro[cyclobutane-1,4′-isoquinolin]-1′-one] |
| – | 20 to 200 | – | CCN1CC2(C1)CN(c1ccc(Nc3ncc(F)c(-c4cc5c(s4)C4(CCCCC4)CN(CC)C5=O)n3)nc1)C2 [Example 75, 5′-Ethyl-2′-(2-((5-(6-ethyl-2,6-diazaspiro[3.3]heptan-2-yl)pyridin-2-yl)amino)-5-fluoropyrimidin-4-yl)-5′,6′-dihydro-4′H-spiro[cyclohexane-1,7′-thieno[3,2-c]pyridin]-4′-one] |
| – | 20 to 200 | – | CN1CCC(c2ccc(Nc3ncc(F)c(-c4ccc5c(c4)C4(CCCC4)N(C)C5=O)n3)nc2)CC1 [Example 79, 6′-(5-Fluoro-2-((5-(1-methylpiperidin-4-yl)pyridin-2-yl)amino)pyrimidin-4-yl)-2′-methylspiro[cyclopentane-1,1′-isoindolin]-3′-one] |
| – | 20 to 200 | – | CN1CCC(c2ccc(Nc3ncc(F)c(-c4cc5c(s4)C4(CCCC4)CN(C)C5=O)n3)nn2)CC1 [Example 87, 2-[5-Fluoro-2-[[6-(1-methylpiperidin-4-yl)pyridazin-3-yl]amino]pyrimidin-4-yl]-5-methylspiro[6H-thieno[3,2-c]pyridine-7,1′-cyclopentane]-4-one] |

The next lines start with the molecule.

| SMILES | IC50 ([1]; Homo sapiens, 240 h) [nM] | IC50 [2] [nM] | IC50 [1] [nM] |
| --- | --- | --- | --- |
| CCN1C(=O)c2c(sc(-c3nc(Nc4ccc(C5CCN(C)CC5)cn4)ncc3Cl)c2C)C12CC2 [Example 11, 2′-(5-Chloro-2-((5-(1-methyl-piperidin-4-yl)pyridin-2-yl)amino)pyrimidin-4-yl)-5′-ethyl-3′-methylspiro[cyclopropane-1,6′-thieno[2,3-c]pyrrol]-4′(5′H)-one] | 20 to 200 | ≤ 20 | – |
| CCN1C(=O)c2cc(-c3nc(Nc4ccc(N5C[C@H]6CN(C)C[C@H]6C5)cn4)ncc3C)sc2C12CC2 [Example 17] | – | ≤ 20 | 20 to 200 |
| CCN1C(=O)c2cc(-c3nc(Nc4ccc(C5CCN(C)CC5)cn4)ncc3C)sc2C12CC2 [Example 19, 5′-Ethyl-2′-[5-methyl-2-[[5-(1-methylpiperidin-4-yl)pyridin-2-yl]amino]pyrimidin-4-yl]spiro[cyclopropane-1,6′-thieno[2,3-c]pyrrole]-4′-one] | 20 to 200 | ≤ 20 | – |
| Cc1c(-c2nc(Nc3ccc(N4CC5CC(C4)N5C)cn3)ncc2F)sc2c1C(=O)N(C)CC21CC1 [Example 33, 2′-(5-Fluoro-2-((5-(6-methyl-3,6-diazabicyclo[3.1.1]heptan-3-yl)pyridin-2-yl)amino)pyrimidin-4-yl)-3′,5′-dimethyl-5′,6′-dihydro-4′H-spiro[cyclopropane-1,7′-thieno[3,2-c]pyridin]-4′-one] | 20 to 200 | ≤ 20 | – |
| CCN1CC2(C1)CN(c1ccc(Nc3ncc(C)c(-c4sc5c(c4C)C(=O)N(C)CC54CC4)n3)nc1)C2 [Example 42, 2-[2-[[5-(6-Ethyl-2,6-diazaspiro[3.3]heptan-2-yl)pyridin-2-yl]amino]-5-methylpyrimidin-4-yl]-3,5-dimethylspiro[6H-thieno[3,2-c]pyridine-7,1′-cyclopropane]-4-one] | 20 to 200 | ≤ 20 | – |
| CCN1CC2(C1)CN(c1ccc(Nc3ncc(Cl)c(-c4sc5c(c4C)C(=O)N(C)CC54CC4)n3)nc1)C2 [Example 44] | – | ≤ 20 | 20 to 200 |
| CN1CC2(CCC2)c2sc(-c3nc(Nc4ccc(C5CCN(CC(F)F)CC5)cn4)ncc3F)cc2C1=O [Example 49, 2′-(2-((5-(1-(2,2-Difluoroethyl)piperidin-4-yl)pyridin-2-yl)amino)-5-fluoropyrimidin-4-yl)-5′-methyl-5′,6′-dihydro-4′H-spiro[cyclobutane-1,7′-thieno[3,2-c]pyridin]-4′-one] | – | ≤ 20 | – |
| CN1CCN(c2ccc(Nc3ncc(F)c(-c4cc5c(s4)C4(CCCC4)CN(C)C5=O)n3)nc2)C(C(F)(F)F)C1 (stereo not drawn) [Example 65, 2-[5-Fluoro-2-[[5-[4-methyl-2-(trifluoromethyl)piperazin-1-yl]pyridin-2-yl]amino]pyrimidin-4-yl]-5-methylspiro[6H-thieno[3,2-c]pyridine-7,1′-cyclopentane]-4-one] | – | ≤ 20 | – |
| C/C=C/CN1CCC(c2ccc(Nc3ncc(F)c(-c4sc5c(c4C)C(=O)N(C)C54CC4)n3)nc2)C1 (stereo not drawn) [Example 72, (E)-2′-(2-((5-(1-(But-2-en-1-yl)pyrrolidin-3-yl)pyridin-2-yl)amino)-5-fluoropyrimidin-4-yl)-3′,5′-dimethylspiro[cyclopropane-1,6′-thieno[2,3-c]pyrrol]-4′(5′H)-one] | – | ≤ 20 | – |
| CCN1CC2(C1)CN(c1ccc(Nc3ncc(F)c(-c4cc5c(s4)C4(CN(C)C5=O)CC5(CC5)C4)n3)nc1)C2 [Example 76, 2″-(2-((5-(6-Ethyl-2,6-diazaspiro[3.3]heptan-2-yl)pyridin-2-yl)amino)-5-fluoropyrimidin-4-yl)-5″-methyl-5″,6″-dihydro-4″H-dispiro[cyclopropane-1,1′-cyclobutane-3′,7″-thieno[3,2-c]pyridin]-4″-one] | – | ≤ 20 | – |
| CN1CCC(c2ccc(Nc3ncc(F)c(-c4cc5c(s4)C4(CN(C)C5=O)CC(F)(F)C4)n3)nc2)CC1 [Example 84, 3,3-Difluoro-2′-(5-fluoro-2-((5-(1-methylpiperidin-4-yl)pyridin-2-yl)amino)pyrimidin-4-yl)-5′-methyl-5′,6′-dihydro-4′H-spiro[cyclobutane-1,7′-thieno[3,2-c]pyridin]-4′-one] | – | 20 to 200 | – |
| CCN1CC2(C1)CN(c1ccc(Nc3ncc(F)c(-c4cc5c(s4)C4(CN(C)C5=O)CC(F)(F)C4)n3)nc1)C2 [Example 85, 2′-(2-((5-(6-Ethyl-2,6-diazaspiro[3.3]heptan-2-yl)pyridin-2-yl)amino)-5-fluoropyrimidin-4-yl)-3,3-difluoro-5′-methyl-5′,6′-dihydro-4′H-spiro[cyclobutane-1,7′-thieno[3,2-c]pyridin]-4′-one] | – | 20 to 200 | – |
